Assay results taken from US7351699B1, “Use of DHEA or precursors or metabolic derivatives thereof as a depigmenting agent” (L'Oreal, priority 1999, dated 2008).

What was measured:
[1] = test system: pigmentation marks on the skin (back of one hand); test: Clinical evaluation of pigmentation marks (visual overall score 0 to 7 by an expert); type: in vivo; details: gelled oil-in-water emulsion with 1% by weight DHEA, applied morning and evening for four months to the back of one hand, 20 women 55 to 70 years old, score constant on untreated hand, FIG. 1
Protocol: (§1) A gelled oil-in-water emulsion, containing 1% by weight of DHEA as sole active agent, was tested on a group of 20 women from 55 to 70 years old. The emulsion was applied morning and evening for four months to the back of one hand.
The marks present on the skin were evaluated before and after treatment by visual observation made by an expert, giving the marks an overall score from 0 to 7 as a function of their number, their size and their intensity (clinical evaluation).

[2] = test system: skin pigmentation (back of one hand); test: Biophysical evaluation by colorimetry (Minolta CR200, parameter b*); type: in vivo; details: gelled oil-in-water emulsion with 1% by weight DHEA, applied morning and evening for four months to the back of one hand; 20 women 55 to 70 years old; decrease greater than on untreated hand; FIG. 2
Protocol: as §1
They were also evaluated by colorimetry, using a Minolta CR200 […] (biophysical evaluation). This apparatus describes the colors in a three-dimensional space, using the system of coordinates L, a* and b* recommended by the International Commission on Illumination, in which L* represents the luminance or clarity of the color ([…]), a* is the separation component between green (negative) and red (positive) and is correlated to the skin erythema, and b* varies from blue (negative) to yellow (positive) and represents the skin pigmentation. This parameter b* was used to evaluate the change in the marks in the course of the treatment. It is the result of the average of six individual measurements taken per zone and per measurement period.

SMILES: C[C@]12CC[C@H](O)CC1=CC[C@@H]1[C@@H]2CC[C@]2(C)C(=O)CC[C@@H]12 [DHEA, dehydroepiandrosterone]
- overall clinical score of the pigmentation marks [1]: improvement in the overall clinical score
- component b of the color of the skin (skin pigmentation) [2]: decrease in the component b of the color of the skin
